Assay results published in patent publication US8937062B2, “Compositions and methods for treating, reducing, ameliorating, or preventing infections caused by antibacterial drug-resistant bacteria” (Bausch & Lomb Incorporated, priority 2007, dated 2015).
Converted amounts (≈) assume the structure as drawn. Read-outs that look alike come from different tables or passages of the source.

How the values were obtained:
Assay type in all cases: cell-based
[1] = tested on: E. cloacae, extended-spectrum β-lactamase positive; assay: MIC90, broth microdilution (CLSI M7-A7), Table 4; conditions: Enterobacter cloacae, 15 isolates
Procedure: (§1) The MIC90 values were determined according to the broth microdilution method outlined in the Clinical and Laboratory Standards Institute Approved Standard M7-A7 (2006).

[2] = tested on: H. influenzae, β-lactamase positive, ampicillin-resistant; assay: MIC90, broth microdilution (CLSI M7-A7), Table 4; conditions: 25 isolates; for MIC90: Haemophilus influenzae
Procedure: as §1

[3] = tested on: H. influenzae, β-lactamase positive; assay: MIC90, broth microdilution (CLSI M7-A7), Table 4; conditions: 53 isolates; for MIC90: Haemophilus influenzae
Procedure: as §1

[4] = tested on: S. aureus, methicillin- and ciprofloxacin-resistant; assay: MIC90, broth microdilution (CLSI M7-A7), Table 4; conditions: Staphylococcus aureus, 24 isolates
Procedure: as §1

[5] = tested on: S. aureus, methicillin-resistant and ciprofloxacin-sensitive; assay: MIC90, broth microdilution (CLSI M7-A7), Table 4; conditions: 25 isolates; for MIC90: Staphylococcus aureus
Procedure: as §1

[6] = tested on: S. aureus, vancomycin-intermediately resistant; assay: MIC90, broth microdilution (CLSI M7-A7), Table 4; conditions: Staphylococcus aureus, 23 isolates
Procedure: as §1

[7] = tested on: S. aureus, vancomycin-resistant; assay: MIC90, broth microdilution (CLSI M7-A7), Table 4; conditions: Staphylococcus aureus, 3 isolates, read-out: MIC90 Geometric Mean
Procedure: as §1

[8] = tested on: S. epidermidis, methicillin-resistant; assay: MIC90, broth microdilution (CLSI M7-A7), Table 4; conditions: Staphylococcus epidermidis, 64 isolates
Procedure: as §1

[9] = tested on: S. pneumoniae, levofloxacin-resistant; assay: MIC90, broth microdilution (CLSI M7-A7), Table 4; conditions: Streptococcus pneumoniae, 25 isolates
Procedure: as §1

[10] = tested on: S. pneumoniae, penicillin-intermediately resistant; assay: MIC90, broth microdilution (CLSI M7-A7), Table 4; conditions: Streptococcus pneumoniae, 26 isolates
Procedure: as §1

[11] = tested on: S. pneumoniae, penicillin-resistant; assay: MIC90, broth microdilution (CLSI M7-A7), Table 4; conditions: 26 isolates; for MIC90: Streptococcus pneumoniae
Procedure: as §1

[12] = tested on: S. aureus Clinical Isolates; assay: In vitro activity against clinical isolates, sixth test, Table 7; conditions: Staphylococcus aureus, 49 isolates
[13] = tested on: S. pneumoniae Clinical Isolates; assay: as above; conditions: 78 isolates; for MIC90: Streptococcus pneumoniae

SMILES | MIC90 ([1]; read-out: MIC90 Geometric Mean) [µg/mL] | MIC90 ([1]; read-out: MIC90 Value) [µg/mL] | MIC90 Range [2] [µg/mL] | MIC90 ([2]; read-out: MIC90 Geometric Mean) [µg/mL] | MIC90 ([2]; read-out: MIC90 Value) [µg/mL] | MIC90 ([3]; read-out: MIC90 Geometric Mean) [µg/mL] | MIC90 ([3]; read-out: MIC90 Value) [µg/mL] | MIC90 ([4]; read-out: MIC90 Geometric Mean) [µg/mL] | MIC90 ([4]; read-out: MIC90 Value) [µg/mL] | MIC90 Range [5] [µg/mL] | MIC90 ([5]; read-out: MIC90 Geometric Mean) [µg/mL] | MIC90 ([5]; read-out: MIC90 Value) [µg/mL] | MIC90 ([6]; read-out: MIC90 Geometric Mean) [µg/mL] | MIC90 ([6]; read-out: MIC90 Value) [µg/mL] | MIC90 [7] [µg/mL] | MIC90 ([8]; read-out: MIC90 Geometric Mean) [µg/mL] | MIC90 ([8]; read-out: MIC90 Value) [µg/mL] | MIC90 ([9]; read-out: MIC90 Geometric Mean) [µg/mL] | MIC90 ([9]; read-out: MIC90 Value) [µg/mL] | MIC90 ([10]; read-out: MIC90 Geometric Mean) [µg/mL] | other results
COc1c(N2CCNC(C)C2)c(F)cc2c(=O)c(C(=O)O)cn(C3CC3)c12 (stereo not drawn) [GTFX, gatifloxacin] | 1.58 (≈ 4.21 µM) | > 8 | 0.008 to 0.06 | 0.022 (≈ 0.0586 µM) | 0.03 (≈ 0.0799 µM) | 0.014 (≈ 0.0373 µM) | 0.03 (≈ 0.0799 µM) | > 8 | > 8 | 0.03 to 8 | 0.099 (≈ 0.264 µM) | 0.12 (≈ 0.32 µM) | 3.65 (≈ 9.72 µM) | 8 (≈ 21.3 µM) | 6.35 (≈ 16.9 µM) | 1.43 (≈ 3.8 µM) | > 8 | 5.43 (≈ 14.5 µM) | > 8 | 0.344 (≈ 0.916 µM) | MIC90 ([10]; read-out: MIC90 Value): 0.5 µg/mL (≈ 1.33 µM); MIC90 Range [11]: 0.12 to 0.5 µg/mL; MIC90 ([11]; read-out: MIC90 Geometric Mean): 0.293 µg/mL (≈ 0.781 µM); MIC90 ([11]; read-out: MIC90 Value): 0.5 µg/mL (≈ 1.33 µM); MIC90 [12]: 2 µg/mL (≈ 5.33 µM); MIC90 Range [13]: 0.12 to 0.5 µg/mL; MIC90 [13]: 0.25 µg/mL (≈ 0.666 µM)
COc1c(N2C[C@@H]3CCCN[C@@H]3C2)c(F)cc2c(=O)c(C(=O)O)cn(C3CC3)c12 [MOFX, moxifloxacin] | 2.75 (≈ 6.85 µM) | > 8 | 0.015 to 0.12 | 0.047 (≈ 0.117 µM) | 0.12 (≈ 0.299 µM) | 0.03 (≈ 0.0747 µM) | 0.06 (≈ 0.149 µM) | 6.92 (≈ 17.2 µM) | > 8 | 0.015 to 8 | 0.057 (≈ 0.142 µM) | 0.12 (≈ 0.299 µM) | 2.69 (≈ 6.7 µM) | 8 (≈ 19.9 µM) | 6.35 (≈ 15.8 µM) | 1.12 (≈ 2.8 µM) | > 8 | 3.68 (≈ 9.17 µM) | > 8 | 0.209 (≈ 0.521 µM) | MIC90 Range [3]: 0.015 to 0.06 µg/mL; MIC90 ([10]; read-out: MIC90 Value): 0.25 µg/mL (≈ 0.623 µM); MIC90 Range [11]: 0.06 to 0.25 µg/mL; MIC90 ([11]; read-out: MIC90 Geometric Mean): 0.217 µg/mL (≈ 0.541 µM); MIC90 ([11]; read-out: MIC90 Value): 0.25 µg/mL (≈ 0.623 µM); MIC90 Range [13]: 0.06 to 0.25 µg/mL; MIC90 [13]: 0.12 µg/mL (≈ 0.299 µM)
